Data: US20210254272A1, “TEXTILES HAVING ANTIMICROBIAL PROPERTIES” (Livinguard AG, priority 2015, published 2021)

Tested on: E. coli (ATCC 25922)
Test: AATCC Test Method 100-2012 antibacterial activity of the treated textile, after 25 washes and 12 abrasion cycles, contact time 60 minutes
Format: cell-based
Conditions: for Performance Test-Log reduction of antimicrobial performance: pad process, 2 min
Method: The antibacterial activity of the textile was tested in accordance with AATCC Test Method 100-2012. Prior to the test, the fabric was cut into coupons of 2×4 inches and washed separately 25 times, and exposed to 12 abrasion cycles, as per US EPA protocol 90072PA4 (described further below). The tests were made against E. coli (ATCC 25922). Contact time was 60 minutes, after inoculating with 10^8 CFU per coupon.

CCCC1COC(Cn2cncn2)(c2ccc(Cl)cc2Cl)O1 (stereo not shown) [Propiconazole, propiconazole]
Performance Test-Log reduction of antimicrobial performance (single agent 5 gm/lit, curing 180° C.): 0.98 Log
Performance Test-Log reduction of antimicrobial performance (single agent 10 gm/lit, curing 120° C.): 0.25 Log
Performance Test-Log reduction of antimicrobial performance (single agent 10 gm/lit, curing 140° C.): 0.38 Log
Performance Test-Log reduction of antimicrobial performance (single agent 10 gm/lit, curing 150° C.): 0.42 Log
Performance Test-Log reduction of antimicrobial performance (single agent 10 gm/lit, curing 160° C.): 0.56 Log
Performance Test-Log reduction of antimicrobial performance (single agent 10 gm/lit, curing 180° C.): 2.11 Log
Log reduction of antimicrobial performance (pure cotton fabric, exhaust 80° C., 60 min, dosage 0.1% o.w.f): 0.63 Log
Log reduction of antimicrobial performance (pure cotton fabric, exhaust 80° C., 60 min, dosage 0.2% o.w.f): 1.45 Log
Log reduction of antimicrobial performance (pure cotton fabric, exhaust 80° C., 60 min, dosage 0.5% o.w.f): 1.95 Log
Log reduction of antimicrobial performance (pure cotton fabric, exhaust 80° C., 60 min, dosage 0.8% o.w.f): 2.34 Log
Log reduction of antimicrobial performance (pure cotton fabric, exhaust 80° C., 60 min, dosage 1.0% o.w.f): 2.85 Log
Log reduction of antimicrobial performance (pure cotton, exhaust 80° C., 1% o.w.f, 60 min, curing 180° C., curing dwell time 0.5 min): 0.4 Log
Log reduction of antimicrobial performance (pure cotton, exhaust 80° C., 1% o.w.f, 60 min, curing 180° C., curing dwell time 1.0 min): 0.8 Log
Log reduction of antimicrobial performance (pure cotton, exhaust 80° C., 1% o.w.f, 60 min, curing 180° C., curing dwell time 1.5 min): 2.2 Log
Log reduction of antimicrobial performance (pure cotton, exhaust 80° C., 1% o.w.f, 60 min, curing 180° C., curing dwell time 2.0 min): 2.8 Log
Log reduction of antimicrobial performance (pure cotton, exhaust 80° C., 1% o.w.f, 60 min, curing 180° C., curing dwell time 2.5 min): 2.3 Log
Log reduction of antimicrobial performance (pure cotton, exhaust 80° C., 1% o.w.f, 60 min, curing 180° C., curing dwell time 3.0 min): 1.2 Log
Log reduction of antimicrobial performance (pure polyester fabric, exhaust 80° C., 60 min, curing 180° C., curing dwell time 0.5 min): 0.4 Log
Log reduction of antimicrobial performance (pure polyester fabric, exhaust 80° C., 60 min, curing 180° C., curing dwell time 1.0 min): 0.8 Log
Log reduction of antimicrobial performance (pure polyester fabric, exhaust 80° C., 60 min, curing 180° C., curing dwell time 1.5 min): 2.2 Log
Log reduction of antimicrobial performance (pure polyester fabric, exhaust 80° C., 60 min, curing 180° C., curing dwell time 2.0 min): 2.74 Log
Log reduction of antimicrobial performance (pure polyester fabric, exhaust 80° C., 60 min, curing 180° C., curing dwell time 2.5 min): 2.35 Log
Log reduction of antimicrobial performance (pure polyester fabric, exhaust 80° C., 60 min, curing 180° C., curing dwell time 3.0 min): 1.2 Log
Log reduction of antimicrobial performance (pure polyester fabric, exhaust 80° C., 60 min, dosage 0.1% o.w.f): 0.57 Log
Log reduction of antimicrobial performance (pure polyester fabric, exhaust 80° C., 60 min, dosage 0.2% o.w.f): 1.35 Log
Log reduction of antimicrobial performance (pure polyester fabric, exhaust 80° C., 60 min, dosage 0.5% o.w.f): 1.67 Log
Log reduction of antimicrobial performance (pure polyester fabric, exhaust 80° C., 60 min, dosage 0.8% o.w.f): 2.14 Log
Log reduction of antimicrobial performance (pure polyester fabric, exhaust 80° C., 60 min, dosage 1.0% o.w.f): 2.73 Log
Log reduction of antimicrobial performance (solution dosage 0.10% o.w.f, exhaust temperature 40° C., process time 60 min): 0 Log
Log reduction of antimicrobial performance (solution dosage 0.10% o.w.f, exhaust temperature 60° C., process time 60 min): 0 Log
Log reduction of antimicrobial performance (solution dosage 0.10% o.w.f, exhaust temperature 65° C., process time 60 min): 0 Log
Log reduction of antimicrobial performance (solution dosage 0.10% o.w.f, exhaust temperature 70° C., process time 60 min): 0 Log
Log reduction of antimicrobial performance (solution dosage 0.10% o.w.f, exhaust temperature 75° C., process time 60 min): 0.59 Log
Log reduction of antimicrobial performance (solution dosage 0.10% o.w.f, exhaust temperature 80° C., process time 60 min): 0.56 Log
Log reduction of antimicrobial performance (solution dosage 0.10% o.w.f, exhaust temperature 85° C., process time 60 min): 0.83 Log
Log reduction of antimicrobial performance (solution dosage 0.10% o.w.f, exhaust temperature 90° C., process time 60 min): 0.83 Log
Log reduction of antimicrobial performance (solution dosage 0.10% o.w.f, exhaust temperature 95° C., process time 60 min): 0.83 Log
Log reduction of antimicrobial performance (solution dosage 0.20% o.w.f, exhaust temperature 40° C., process time 60 min): 0 Log
Log reduction of antimicrobial performance (solution dosage 0.20% o.w.f, exhaust temperature 60° C., process time 60 min): 0.08 Log
Log reduction of antimicrobial performance (solution dosage 0.20% o.w.f, exhaust temperature 65° C., process time 60 min): 0.09 Log
Log reduction of antimicrobial performance (solution dosage 0.20% o.w.f, exhaust temperature 70° C., process time 60 min): 0.12 Log
Log reduction of antimicrobial performance (solution dosage 0.20% o.w.f, exhaust temperature 75° C., process time 60 min): 0.89 Log
Log reduction of antimicrobial performance (solution dosage 0.20% o.w.f, exhaust temperature 80° C., process time 60 min): 1.34 Log
Log reduction of antimicrobial performance (solution dosage 0.20% o.w.f, exhaust temperature 85° C., process time 60 min): 1.45 Log
Log reduction of antimicrobial performance (solution dosage 0.20% o.w.f, exhaust temperature 90° C., process time 60 min): 1.45 Log
Log reduction of antimicrobial performance (solution dosage 0.20% o.w.f, exhaust temperature 95° C., process time 60 min): 1.45 Log
Log reduction of antimicrobial performance (solution dosage 0.50% o.w.f, exhaust temperature 40° C., process time 60 min): 0 Log
Log reduction of antimicrobial performance (solution dosage 0.50% o.w.f, exhaust temperature 60° C., process time 60 min): 0.12 Log
Log reduction of antimicrobial performance (solution dosage 0.50% o.w.f, exhaust temperature 65° C., process time 60 min): 0.13 Log
Log reduction of antimicrobial performance (solution dosage 0.50% o.w.f, exhaust temperature 70° C., process time 60 min): 0.19 Log
Log reduction of antimicrobial performance (solution dosage 0.50% o.w.f, exhaust temperature 75° C., process time 60 min): 1.12 Log
Log reduction of antimicrobial performance (solution dosage 0.50% o.w.f, exhaust temperature 80° C., process time 60 min): 1.98 Log
Log reduction of antimicrobial performance (solution dosage 0.50% o.w.f, exhaust temperature 85° C., process time 60 min): 2.04 Log
Log reduction of antimicrobial performance (solution dosage 0.50% o.w.f, exhaust temperature 90° C., process time 60 min): 2.06 Log
Log reduction of antimicrobial performance (solution dosage 0.50% o.w.f, exhaust temperature 95° C., process time 60 min): 2.06 Log
Log reduction of antimicrobial performance (solution dosage 0.80% o.w.f, exhaust temperature 40° C., process time 60 min): 0 Log
Log reduction of antimicrobial performance (solution dosage 0.80% o.w.f, exhaust temperature 60° C., process time 60 min): 0.18 Log
Log reduction of antimicrobial performance (solution dosage 0.80% o.w.f, exhaust temperature 65° C., process time 60 min): 0.19 Log
Log reduction of antimicrobial performance (solution dosage 0.80% o.w.f, exhaust temperature 70° C., process time 60 min): 0.23 Log
Log reduction of antimicrobial performance (solution dosage 0.80% o.w.f, exhaust temperature 75° C., process time 60 min): 1.35 Log
Log reduction of antimicrobial performance (solution dosage 0.80% o.w.f, exhaust temperature 80° C., process time 60 min): 2.34 Log
Log reduction of antimicrobial performance (solution dosage 0.80% o.w.f, exhaust temperature 85° C., process time 60 min): 2.56 Log
Log reduction of antimicrobial performance (solution dosage 0.80% o.w.f, exhaust temperature 90° C., process time 60 min): 2.61 Log
Log reduction of antimicrobial performance (solution dosage 0.80% o.w.f, exhaust temperature 95° C., process time 60 min): 2.61 Log
Log reduction of antimicrobial performance (solution dosage 1.00% o.w.f, exhaust temperature 40° C., process time 60 min): 0 Log
Log reduction of antimicrobial performance (solution dosage 1.00% o.w.f, exhaust temperature 60° C., process time 60 min): 0.25 Log
Log reduction of antimicrobial performance (solution dosage 1.00% o.w.f, exhaust temperature 65° C., process time 60 min): 0.26 Log
Log reduction of antimicrobial performance (solution dosage 1.00% o.w.f, exhaust temperature 70° C., process time 60 min): 0.32 Log
Log reduction of antimicrobial performance (solution dosage 1.00% o.w.f, exhaust temperature 75° C., process time 60 min): 1.42 Log
Log reduction of antimicrobial performance (solution dosage 1.00% o.w.f, exhaust temperature 80° C., process time 60 min): 2.87 Log
Log reduction of antimicrobial performance (solution dosage 1.00% o.w.f, exhaust temperature 85° C., process time 60 min): 2.89 Log
Log reduction of antimicrobial performance (solution dosage 1.00% o.w.f, exhaust temperature 90° C., process time 60 min): 2.91 Log
Log reduction of antimicrobial performance (solution dosage 1.00% o.w.f, exhaust temperature 95° C., process time 60 min): 2.91 Log
